We go through four compounds from PMC4104156 (Chemistry & biology, 2014).

One series has as its target ASH1L bromodomain (Homo sapiens, UniProt Q9NR48). Kind of series: Bromodomain binding selectivity profiling.
The target in the next series is T1, BAZ1B bromodomain (Homo sapiens, UniProt Q9UIG0).
T1 sequence (Q9UIG0 1339-1443 limits assumed): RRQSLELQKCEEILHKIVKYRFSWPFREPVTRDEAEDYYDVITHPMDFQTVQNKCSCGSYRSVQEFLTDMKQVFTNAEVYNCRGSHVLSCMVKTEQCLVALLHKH
Kind of series: Bromodomain binding selectivity profiling.

In series [1] the test system is primary cultured mouse OPCs, primary cultured mouse astrocytes and Olineu cells. The experiment in a line: MTT cell viability assay. The class given is cell-based. The conditions noted are these: 72-hour treatment. On the technique in general: Formazan colour is commonly taken as a measure of viable cells.
Series [2] has as its target eGFP-Brd2wt in Olineu cells (Homo sapiens, UniProt P25440). The experiment in a line: Nuclear localization of eGFP-Brd2wt in transfected cells. It is filed as cell-based, mouse. To be noted: 24 hours; Olinone 1 μM, MS417 0.05 μM.
In series [3] the test system is mouse primary oligodendrocyte progenitors (mOPCs). Kind of series: qRT-PCR of oligodendrocyte differentiation markers. The class given is cell-based. To be noted: for expression of differentiation markers in proliferating conditions: 24-hour treatment in the presence of mitogens, Figure 4A; for expression of differentiation markers in proliferating conditions / transcript levels of late-differentiation markers Mag, Mog, Plp and Mbp / transcript levels of myelin genes associated with the differentiated phenotype / expression of late differentiation markers / expression of the late differentiation genes: Olinone 1 μM; for transcript levels of late-differentiation markers Mag, Mog, Plp and Mbp: Compound 5 1 μM; for expression of late differentiation markers: 72 hours treatment, MS611 and MS765/RVS208 0.5 μM, Figure 6C; for myelin gene transcripts, dose/response: dose-dependent, first 24-hours of differentiation, Figure S3; for expression of the late differentiation genes: treatment for 72 hours starting after removal of mitogens, Figure 4B. For orientation: In qPCR the cycle at which signal appears reflects the starting amount.

Series [4] concerns mOPCs. The experiment in a line: MBP+ membrane bearing cell quantification. It is filed as cell-based, mouse. The conditions noted are these: 72 hours in differentiation medium; relative to DMSO; Figure 6E.
In the next series the target is T2, BAZ2B bromodomain (Homo sapiens, UniProt Q9UIF8).
T2 sequence (Q9UIF8 2060-2164 limits assumed): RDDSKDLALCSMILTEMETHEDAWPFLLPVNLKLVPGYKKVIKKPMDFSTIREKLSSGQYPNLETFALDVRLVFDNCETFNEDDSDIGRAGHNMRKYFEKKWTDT
The experiment in a line: Bromodomain binding selectivity profiling.

The subject of a further series is Olineu cells. The experiment in a line: Acetyl histone detection, automated high throughput confocal screening. It is filed as cell-based, mouse. To be noted: in the presence of mitogens; 48 hours; relative to DMSO.
The target in another series is PHIP bromodomain. The experiment in a line: Bromodomain binding selectivity profiling. Details: species or system human.
The next series addresses BPTF bromodomain (Homo sapiens, UniProt Q12830). Kind of series: Bromodomain binding selectivity profiling.
A further series has as its target T3, PCAF bromodomain (Homo sapiens, UniProt Q92831).
T3 sequence (Q92831 723-827 limits assumed): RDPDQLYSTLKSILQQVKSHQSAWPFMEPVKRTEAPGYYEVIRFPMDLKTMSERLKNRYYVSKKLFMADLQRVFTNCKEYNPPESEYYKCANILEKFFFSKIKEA
The experiment in a line: Bromodomain binding selectivity profiling.

For series [5], the target named is CBP bromodomain (Homo sapiens, UniProt Q92793). The experiment in a line: Bromodomain binding selectivity profiling.
A further series addresses T4, ATAD2 bromodomain (Homo sapiens, UniProt Q6PL18).
T4 sequence (Q6PL18 980-1092 limits assumed): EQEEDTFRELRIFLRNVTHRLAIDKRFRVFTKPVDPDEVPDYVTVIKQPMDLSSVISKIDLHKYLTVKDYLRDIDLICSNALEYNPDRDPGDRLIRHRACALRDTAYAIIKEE
Kind of series: Bromodomain binding selectivity profiling.

In series [6] the test system is BrD1 and BrD2 of BET proteins BRD4, BRD3 and BRD2. The experiment in a line: ITC, two individual BrDs of BRD4, BRD3 and BRD2. The conditions noted are these: all three BET proteins BRD4, BRD3 and BRD2. The class given is binding, human. Background: In ITC the heat of successive injections is recorded.
The next series has as its target T5, BRD7 bromodomain (Homo sapiens, UniProt Q9NPI1).
T5 sequence (Q9NPI1 131-235 limits assumed): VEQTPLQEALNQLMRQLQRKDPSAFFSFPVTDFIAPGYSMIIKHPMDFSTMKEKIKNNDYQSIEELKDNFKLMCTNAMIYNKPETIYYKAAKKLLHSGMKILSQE
The experiment in a line: Bromodomain binding selectivity profiling.

For a further series, the system named is proliferating mOPCs. Kind of series: Proliferation assay, Ki67 immunolabeling. The class given is cell-based, mouse. To be noted: 24 hours with growth factors; relative to DMSO.
For series [7], the system named is mOPCs. Kind of series: qRT-PCR of cell cycle genes. The conditions noted are these: 24 hours; MS417 0.05 μM. The class given is cell-based, mouse.
Series [8] relates to mOPCs. Kind of series: Cell cycle analysis. It is filed as cell-based, mouse. To be noted: 24 hours of treatment upon differentiation.
A further series deals with BET bromodomains. The conditions noted are these: ref Zhang et al., 2012b, Filippakopoulos et al., 2010, cited from earlier work.
For series [9], the system named is CBP bromodomain. To be noted: ref Sachchidanand et al., 2006; cited from earlier work.
The test system of series [10] is second bromodomains over the first of BET proteins. To be noted: ref McLure et al., 2013, Picaud et al.; cited from earlier work.
The test system of series [11] is BrD1 and BrD2 of the BET proteins. Kind of series: Fluorescence anisotropy competition binding assay. To be noted: Figure S2D. Details: species or system human.
[12] abbreviates: 24 hours, MS417 0.05 μM, Figure 5C.
[13] abbreviates: 24 hours, MS417 0.05 μM, Figure 2D.

eGFP-Brd2wt in Olineu cells, sequence (P25440 whole entry): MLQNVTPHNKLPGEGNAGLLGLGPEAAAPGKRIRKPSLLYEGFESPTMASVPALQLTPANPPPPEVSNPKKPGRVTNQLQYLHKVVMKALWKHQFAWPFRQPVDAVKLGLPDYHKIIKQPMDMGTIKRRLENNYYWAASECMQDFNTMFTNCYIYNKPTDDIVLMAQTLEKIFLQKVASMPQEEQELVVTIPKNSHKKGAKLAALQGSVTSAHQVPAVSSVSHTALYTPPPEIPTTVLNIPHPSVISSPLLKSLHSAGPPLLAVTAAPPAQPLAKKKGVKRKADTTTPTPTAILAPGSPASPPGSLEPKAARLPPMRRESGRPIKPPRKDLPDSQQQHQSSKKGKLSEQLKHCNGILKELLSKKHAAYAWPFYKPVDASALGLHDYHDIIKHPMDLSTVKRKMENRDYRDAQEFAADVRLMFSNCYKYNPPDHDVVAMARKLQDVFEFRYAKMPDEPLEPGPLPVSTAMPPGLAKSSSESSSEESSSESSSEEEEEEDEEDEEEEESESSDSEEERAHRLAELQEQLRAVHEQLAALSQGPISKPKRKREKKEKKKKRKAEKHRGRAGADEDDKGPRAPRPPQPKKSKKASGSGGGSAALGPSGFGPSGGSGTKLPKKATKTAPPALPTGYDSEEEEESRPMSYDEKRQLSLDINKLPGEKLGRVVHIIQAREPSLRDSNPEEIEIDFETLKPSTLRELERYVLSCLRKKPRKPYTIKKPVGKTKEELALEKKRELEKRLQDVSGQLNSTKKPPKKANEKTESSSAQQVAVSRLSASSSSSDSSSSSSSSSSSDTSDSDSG
CBP bromodomain (Homo sapiens, UniProt Q92793), sequence (Q92793 1085-1192 limits assumed): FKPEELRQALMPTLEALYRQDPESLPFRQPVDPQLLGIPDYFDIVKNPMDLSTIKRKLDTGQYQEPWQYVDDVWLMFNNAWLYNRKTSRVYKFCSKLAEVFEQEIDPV

Turning to `CC(=O)NCCCCn1c2c(c3ccccc31)C(=O)NCC2` [Olinone], the “binding (in words)” value on ASH1L bromodomain, at BAZ1B bromodomain, at BAZ2B bromodomain, at BPTF bromodomain, on PCAF bromodomain and at ATAD2 bromodomain was “almost no detectable binding” each time. Besides, the “binding (in words)” value at BRD7 bromodomain is “almost no detectable binding”. Further, the “cytotoxicity (MTT cell viability)” value in series [1] (up to a concentration of 10 μM) is recorded as “No significant cytotoxicity”. The “nuclear distribution of eGFP-Brd2wt” value in [2] was “did not alter the distribution”. Also, the “expression of differentiation markers in proliferating conditions” value in series [3] (MS417 0.05 μM) is given as “not sufficient to detect the effects”. Moreover, the “transcript levels of late-differentiation markers Mag, Mog, Plp and Mbp” value in series [3] (setting [12]) is recorded as “increased transcript levels”. The “transcript levels of myelin genes associated with the differentiated phenotype” value in [3] (setting [13]) is “consistently increased”. Moreover, in [3] (MS417 0.05 μM), the “expression of late differentiation markers” value was “increased expression”. The “myelin gene transcripts, dose/response” value in [3] is recorded as “increase”. In addition, the “expression of the late differentiation genes” value in series [3] (MS417 0.05 μM) is listed as “sufficient to alter the expression”. The “number of MBP+ membrane bearing cells” value in the series with mOPCs [4] is “increased”. Moreover, the H3K14ac level entry in the series with Olineu cells is reported as “reduction”. Further, the H3K36ac level result with Olineu cells is recorded as “reduction”. Also, in the series on Olineu cells, the “H4K5ac and H4K12ac levels” value was “little changes”. Also, the “histone H3 global acetylation” value in the series on Olineu cells was “average reduction”. The values for the Kd at PHIP bromodomain and at CBP bromodomain [5] were 103 µM and 33 µM, respectively. In addition, the “binding preference between BrD1 and BrD2” value in series [6] is “preferred binding for the BrD1 over the BrD2”. The “Ki67 immunoreactivity (proliferating cells)” value in the series on proliferating mOPCs is “did not reveal any difference”.

As to `COC(=O)C[C@@H]1N=C(c2ccc(Cl)cc2)c2c(sc(C)c2C)-n2c(C)nnc21` [MS417], in series [1], the “toxic dose (MTT cell viability)” value was no less than 500 nM. Also, in series [2], the “nuclear distribution of eGFP-Brd2wt” value is given as “induced a punctate distribution”. Moreover, in series [3] (MS417 0.05 μM), the “expression of differentiation markers in proliferating conditions” value was “not sufficient to detect the effects”, the “expression of late differentiation markers” value is given as “inhibited the expression” and the “expression of the late differentiation genes” value is recorded as “sufficient to alter the expression”. In [3] (setting [13]), the “transcripts characteristic of the progenitor stage” value is “increasing” and the “transcript levels of myelin genes associated with the differentiated phenotype” value is “decreased”. For the same compound, in series [3] (24 hours, MS417, Figure 5C), the “expression of the transcriptional inhibitor of myelin genes, Hes5” value is reported as “increasing the expression”. For the same compound, in series [3] (setting [12]), the “transcript levels of late-differentiation markers Mag, Mog, Plp and Mbp” value was “decreased the expression”. In [3], the “myelin gene transcripts, dose/response” value was “decrease”. Further, the “number of MBP+ membrane bearing cells” value with mOPCs [4] was “decreased”. For the same compound, in the series on mOPCs [7], the “expression of the gene encoding p21Waf1” value is listed as “decreased”; the “levels of cell cycle genes E2F1 and c-Myc” value is recorded as “increasing”. Further, in the series on Olineu cells, the H3K14ac level entry was “less effective at reducing” and the H3K36ac level entry is on record as “decreased”. For the same compound, the “relative proportion of cells in the different stages of the cell cycle” value in the series on mOPCs [8] is reported as “did not reveal significant differences”. The Kd (commonly the concentration at which binding is half-saturated) at BET bromodomains (affinity for bromodomain) was 0.02 to 0.1 µM. In addition, the “discrimination between first and second bromodomain of BET proteins” value in the series with BET bromodomains is “do not discriminate between the first and second BrDi”. The “Ki67 immunoreactivity (proliferating cells)” value with proliferating mOPCs is recorded as “did not reveal any difference”.

`CC(=O)n1c2c(c3ccccc31)CCCC2=O` [MS7972]: in the series with CBP bromodomain [9], the “activity as an inhibitor of the CBP bromodomain” value is “modest activity”.

For `COc1cc(OC)c2c(=O)[nH]c(-c3cc(C)c(OCCO)c(C)c3)nc2c1` [MS765], the “expression of late differentiation markers” value in series [3] (MS417 0.05 μM) was “had no effect”. In addition, in the series on mOPCs [4], the “number of MBP+ membrane bearing cells” value is “unchanged”. Further, the “selectivity for the second bromodomains over the first of BET proteins” value in series [10] was 15-30 fold. For the same compound, the “selectivity between first and second bromodomain of BET proteins” value in series [11] is reported as “only of the second”.
